Data from patent US10307425B2, “Compositions and methods for treating toxoplasmosis, cryptosporidiosis and other apicomplexan protozoan related diseases” (UNIVERSITY OF WASHINGTON, priority 2015, dated 2019).
In brackets after ≈: the same amount, converted by molar mass.

Target: TgCDPK1 (Toxoplasma gondii, UniProt Q9BJF5)
Sequence (Q9BJF5 1-507): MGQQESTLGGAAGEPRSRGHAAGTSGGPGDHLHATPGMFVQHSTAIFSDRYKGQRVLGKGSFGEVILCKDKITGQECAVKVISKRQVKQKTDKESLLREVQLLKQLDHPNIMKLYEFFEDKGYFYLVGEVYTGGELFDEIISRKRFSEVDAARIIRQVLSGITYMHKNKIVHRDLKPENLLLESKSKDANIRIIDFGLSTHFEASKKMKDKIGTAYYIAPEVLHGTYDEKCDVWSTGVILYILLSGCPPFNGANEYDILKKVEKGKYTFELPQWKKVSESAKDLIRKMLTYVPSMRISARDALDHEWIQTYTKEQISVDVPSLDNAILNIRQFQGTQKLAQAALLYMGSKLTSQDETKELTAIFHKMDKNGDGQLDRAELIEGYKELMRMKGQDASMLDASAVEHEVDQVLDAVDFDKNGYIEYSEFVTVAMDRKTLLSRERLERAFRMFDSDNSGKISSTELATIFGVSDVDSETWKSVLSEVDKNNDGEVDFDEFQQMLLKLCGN
Assay: biochemical
Details: not given
Work on `COc1ccc2cc(-c3nn(CC4CCOCC4)c4ncnc(N)c34)ccc2n1` [Example 27, 3-(2-methoxyquinolin-6-yl)-1-((tetrahydro-2H-pyran-4-yl)methyl)-1H-pyrazolo[3,4-d]pyrimidin-4-amine] yielded an IC50 of 21.2 nM.
In the case of `CC(C)Cn1nc(-c2ccc3cc(OCC(C)(C)O)ccc3c2)c2c(N)ncnc21` [Example 33, 1-(6-(4-amino-1-isobutyl-1H-pyrazolo[3,4-d]pyrimidin-3-yl)naphthalen-2-yloxy)-2-methylpropan-2-ol], the IC50 is reported as 5.7 nM.
In the case of `CCOc1ccc2cc(-c3nn(CC4(O)CCN(C)CC4)c4ncnc(N)c34)ccc2n1` [Example 80, 4-((4-amino-3-(2-ethoxyquinolin-6-yl)-1H-pyrazolo[3,4-d]pyrimidin-1-yl)methyl)-1-methylpiperidin-4-ol], the IC50 is reported as 23.1 nM.
With `Nc1ncnc2c1c(-c1ccc3nc(OC4CC4)ccc3c1)nn2CC1(O)CCNCC1` [Example 82, 4-((4-amino-3-(2-cyclopropoxyquinolin-6-yl)-1H-pyrazolo[3,4-d]pyrimidin-1-yl)methyl)piperidin-4-ol] the IC50 was 0.7 nM.
Work on `CN1CCC(C#N)(Cn2nc(-c3ccc4cc(OC5CC5)ccc4c3)c3c(N)ncnc32)CC1` [Example 83, 4-((4-amino-3-(6-cyclopropoxynaphthalen-2-yl)-1H-pyrazolo[3,4-d]pyrimidin-1-yl)methyl)-1-methylpiperidine-4-carbonitrile] yielded an IC50 of 3.5 nM.
Work on `CCOc1ccc2cc(-c3nn(CC4(O)CCNCC4)c4ncnc(N)c34)ccc2n1` [Example 84, 4-((4-amino-3-(2-ethoxyquinolin-6-yl)-1H-pyrazolo[3,4-d]pyrimidin-1-yl)methyl)piperidin-4-ol] yielded an IC50 of 4 nM.
In the case of `CN1CCC(O)(Cn2nc(-c3ccc4nc(OC5CC5)ccc4c3)c3c(N)ncnc32)CC1` [Example 85, 4-((4-amino-3-(2-cyclopropoxyquinolin-6-yl)-1H-pyrazolo[3,4-d]pyrimidin-1-yl)methyl)-1-methylpiperidin-4-ol], the IC50 is reported as 21 nM.
Work on `CCOc1ccc2cc(-c3nn(CC4(C#N)CCNCC4)c4ncnc(N)c34)ccc2n1` [Example 86, 4-((4-amino-3-(2-ethoxyquinolin-6-yl)-1H-pyrazolo[3,4-d]pyrimidin-1-yl)methyl)piperidine-4-carbonitrile] yielded an IC50 of 1.5 nM.
In the case of `CCOc1ccc2cc(-c3nn(CC4(C#N)CCN(C)CC4)c4ncnc(N)c34)ccc2n1` [Example 87, 4-((4-amino-3-(2-ethoxyquinolin-6-yl)-1H-pyrazolo[3,4-d]pyrimidin-1-yl)methyl)-1-methylpiperidine-4-carbonitrile], the IC50 is reported as 103 nM.
For `CC(C)(O)Cn1nc(-c2ccc3cc(OCC#N)ccc3c2)c2c(N)ncnc21` [Example 88, 2-(6-(4-amino-1-(2-hydroxy-2-methylpropyl)-1H-pyrazolo[3,4-d]pyrimidin-3-yl)naphthalen-2-yloxy)acetonitrile], the IC50 was 112 nM.
For `COC(=O)COc1ccc2cc(-c3nn(CC4CCNCC4)c4ncnc(N)c34)ccc2n1` [Example 89, methyl 2-(6-(4-amino-1-(piperidin-4-ylmethyl)-1H-pyrazolo[3,4-d]pyrimidin-3-yl)quinolin-2-yloxy)acetate], the IC50 was 1440 nM.
Work on `Nc1ncnc2c1c(-c1ccc3cc(OC4CC4)ccc3c1)nn2CC1(O)CNC1` [Example 90, 3-((4-amino-3-(6-cyclopropoxynaphthalen-2-yl)-1H-pyrazolo[3,4-d]pyrimidin-1-yl)methyl)azetidin-3-ol] yielded an IC50 of 5.1 nM.
`CN1CC(O)(Cn2nc(-c3ccc4cc(OC5CC5)ccc4c3)c3c(N)ncnc32)C1` [Example 91, 3-((4-amino-3-(6-cyclopropoxynaphthalen-2-yl)-1H-pyrazolo[3,4-d]pyrimidin-1-yl)methyl)-1-methylazetidin-3-ol] showed an IC50 of 3.8 nM.
Molecule `CN1CCC(C#N)(Cn2nc(-c3ccc4nc(OC5CC5)ccc4c3)c3c(N)ncnc32)CC1` [Example 92, 4-((4-amino-3-(2-cyclopropoxyquinolin-6-yl)-1H-pyrazolo[3,4-d]pyrimidin-1-yl)methyl)-1-methylpiperidine-4-carbonitrile] has an IC50 of 5.5 nM.
Molecule `CCOc1ccc2cc(-c3nn(CC4(O)CNC4)c4ncnc(N)c34)ccc2n1` [Example 93, 3-((4-amino-3-(2-ethoxyquinolin-6-yl)-1H-pyrazolo[3,4-d]pyrimidin-1-yl)methyl)azetidin-3-ol] has an IC50 of 2.9 nM.
`Nc1ncnc2c1c(-c1ccc3cc(OC(F)F)ccc3c1)nn2CC1CCNCC1` [Example 94, 3-(6-(difluoromethoxy)naphthalen-2-yl)-1-(piperidin-4-ylmethyl)-1H-pyrazolo[3,4-d]pyrimidin-4-amine] gave an IC50 of 1.9 nM.
`CN1CCC(Cn2nc(-c3ccc4cc(OC(F)F)ccc4c3)c3c(N)ncnc32)CC1` [Example 95, 3-(6-(difluoromethoxy)naphthalen-2-yl)-1-((1-methylpiperidin-4-yl)methyl)-1H-pyrazolo[3,4-d]pyrimidin-4-amine] showed an IC50 of 6.5 nM.
In the case of `CCOc1ccc2cc(-c3nn(CC4(O)CNC4)c4ncnc(N)c34)ccc2c1` [Example 96, 3-((4-amino-3-(6-ethoxynaphthalen-2-yl)-1H-pyrazolo[3,4-d]pyrimidin-1-yl)methyl)azetidin-3-ol], the IC50 is reported as 7.8 nM.
`CCOc1ccc2cc(-c3nn(CC4(O)CN(C)C4)c4ncnc(N)c34)ccc2c1` [Example 97, 3-((4-amino-3-(6-ethoxynaphthalen-2-yl)-1H-pyrazolo[3,4-d]pyrimidin-1-yl)methyl)-1-methylazetidin-3-ol] showed an IC50 of 2.6 nM.
In the case of `Nc1ncnc2c1c(-c1ccc3cc(OC(F)F)ccc3c1)nn2CC1(O)CCNCC1` [Example 98, 4-((4-amino-3-(6-(difluoromethoxy)naphthalen-2-yl)-1H-pyrazolo[3,4-d]pyrimidin-1-yl)methyl)piperidin-4-ol], the IC50 is reported as 7.5 nM.
In the case of `CN1CCC(O)(Cn2nc(-c3ccc4cc(OC(F)F)ccc4c3)c3c(N)ncnc32)CC1` [Example 99, 4-((4-amino-3-(6-(difluoromethoxy)naphthalen-2-yl)-1H-pyrazolo[3,4-d]pyrimidin-1-yl)methyl)-1-methylpiperidin-4-ol], the IC50 is reported as 35.8 nM.
`N#CC1(Cn2nc(-c3ccc4cc(OC(F)F)ccc4c3)c3c(N)ncnc32)CCNCC1` [Example 100, 4-((4-amino-3-(6-(difluoromethoxy)naphthalen-2-yl)-1H-pyrazolo[3,4-d]pyrimidin-1-yl)methyl)piperidine-4-carbonitrile] gave an IC50 of 2.5 nM.
Work on `Nc1ncnc2c1c(-c1ccc3nc(OC4CC4)ccc3c1)nn2CC1(O)CNC1` [Example 101, 3-((4-amino-3-(2-cyclopropoxyquinolin-6-yl)-1H-pyrazolo[3,4-d]pyrimidin-1-yl)methyl)azetidin-3-ol] yielded an IC50 of 3 nM.
`CN1CCC(C#N)(Cn2nc(-c3ccc4cc(OC(F)F)ccc4c3)c3c(N)ncnc32)CC1` [Example 102, 4-((4-amino-3-(6-(difluoromethoxy)naphthalen-2-yl)-1H-pyrazolo[3,4-d]pyrimidin-1-yl)methyl)-1-methylpiperidine-4-carbonitrile] gave an IC50 of 18.2 nM.
With `CN1CC(O)(Cn2nc(-c3ccc4nc(OC5CC5)ccc4c3)c3c(N)ncnc32)C1` [Example 103, 3-((4-amino-3-(2-cyclopropoxyquinolin-6-yl)-1H-pyrazolo[3,4-d]pyrimidin-1-yl)methyl)-1-methylazetidin-3-ol] the IC50 was 4.8 nM.
In the case of `CCOc1ccc2cc(-c3nn(C(C)C)c4ncnc(N)c34)ccc2n1` [Example 106, 3-(2-ethoxyquinolin-6-yl)-1-isopropyl-1H-pyrazolo[3,4-d]pyrimidin-4-amine], the IC50 is reported as 2 nM.
For `CCOc1ccc2cc(-c3nc(CC4CCNCC4)n4ccnc(N)c34)ccc2c1` [Example 114, 1-(6-ethoxynaphthalen-2-yl)-3-(piperidin-4-ylmethyl)imidazo[1,5-a]pyrazin-8-amine], the IC50 was 10 nM.
With `CCOc1ccc2cc(-c3nc(CC4CCN(C)CC4)n4ccnc(N)c34)ccc2c1` [Example 115, 1-(6-ethoxynaphthalen-2-yl)-3-((1-methylpiperidin-4-yl)methyl)imidazo[1,5-a]pyrazin-8-amine] the IC50 was 18.6 nM.
Work on `CC(C)n1nc(-c2ccc3cc(OC4COC4)ccc3c2)c2c(N)ncnc21` [Example 116, 1-isopropyl-3-(6-(oxetan-3-yloxy)naphthalen-2-yl)-1H-pyrazolo[3,4-d]pyrimidin-4-amine] yielded an IC50 of 6.1 nM.
`CC(C)n1nc(-c2ccc3cc(OCC(C)(C)O)ccc3c2)c2c(N)ncnc21` [Example 117, 1-((6-(4-amino-1-isopropyl-1H-pyrazolo[3,4-d]pyrimidin-3-yl)naphthalen-2-yl)oxy)-2-methylpropan-2-ol] gave an IC50 of 3 nM.
`CC(C)n1nc(-c2ccc3cc(OCCO)ccc3c2)c2c(N)ncnc21` [Example 118, 2-((6-(4-amino-1-isopropyl-1H-pyrazolo[3,4-d]pyrimidin-3-yl)naphthalen-2-yl)oxy)ethan-1-ol] gave an IC50 of 6.2 nM.

System: SnCDPK1
Assay: Recombinant SnCDPK1 inhibition
Format: biochemical, Sarcocystis neurona
Details: not given
`Nc1ncnc2c1c(-c1ccc3nccnc3c1)nn2CC1CCNCC1` gave an IC50 greater than 2000 nM.
In the case of `CC(C)(O)Cn1nc(-c2ccc3nc(OC4CC4)ccc3c2)c2c(N)ncnc21` [Example 25, 1-(4-Amino-3-(2-cyclopropoxyquinolin-6-yl)-1H-pyrazolo[3,4-d]pyrimidin-1-yl)-2-methylpropan-2-ol], the IC50 is reported as 7.5 nM.

System: not given
Assay: not given
Details: pH 6.5
In the case of `Nc1ncnc2c1c(-c1ccc3nc(OC4CC4)ccc3c1)nn2CC1CCOCC1` [Example 22, 3-(2-Cyclopropoxyquinolin-6-yl)-1-((tetrahydro-2H-pyran-4-yl)methyl)-1H-pyrazolo[3,4-d]pyrimidin-4-amine], the Solubility is reported as 17 µM (≈ 7.08 µg/mL).
Work on `CC(C)(CO)Cn1nc(-c2ccc3cc(OC4CC4)ccc3c2)c2c(N)ncnc21` [Example 26, 3-(4-Amino-3-(6-cyclopropoxynaphthalen-2-yl)-1H-pyrazolo[3,4-d]pyrimidin-1-yl)-2,2-dimethylpropan-1-ol] yielded a Solubility of 6.2 µM (≈ 2.5 µg/mL).

System: not listed separately
Assay: in vivo
Details: female, BALB/c, mouse, po, 10 mg/kg
Work on `Nc1ncnc2c1c(-c1ccc3nc(OC4CC4)ccc3c1)nn2CC1CCOCC1` [Example 22, 3-(2-Cyclopropoxyquinolin-6-yl)-1-((tetrahydro-2H-pyran-4-yl)methyl)-1H-pyrazolo[3,4-d]pyrimidin-4-amine] yielded a Cmax of 880 ± 230 nM and a Tmax of 30 min.
Molecule `CC(C)(CO)Cn1nc(-c2ccc3cc(OC4CC4)ccc3c2)c2c(N)ncnc21` [Example 26, 3-(4-Amino-3-(6-cyclopropoxynaphthalen-2-yl)-1H-pyrazolo[3,4-d]pyrimidin-1-yl)-2,2-dimethylpropan-1-ol] has a Cmax of 390 ± 160 nM.
Molecule `COc1ccc2cc(-c3nn(CC4CCOCC4)c4ncnc(N)c34)ccc2n1` [Example 27, 3-(2-methoxyquinolin-6-yl)-1-((tetrahydro-2H-pyran-4-yl)methyl)-1H-pyrazolo[3,4-d]pyrimidin-4-amine] has a Cmax of 3900 ± 1100 nM, a Tmax of 30 min and a half-life of 41 ± 21 min.

System: not listed separately
Assay: physchem
Details: water, pH 6.5, aqueous buffer
With `COc1ccc2cc(-c3nn(CC4CCOCC4)c4ncnc(N)c34)ccc2n1` [Example 27, 3-(2-methoxyquinolin-6-yl)-1-((tetrahydro-2H-pyran-4-yl)methyl)-1H-pyrazolo[3,4-d]pyrimidin-4-amine] the Solubility was 8 µM (≈ 3.12 µg/mL).

System: not listed separately
Assay: Rat PK following IV and PO dosing
Details: rats, PO vs IV
For `CC(C)Cn1nc(-c2ccc3cc(OCC(C)(C)O)ccc3c2)c2c(N)ncnc21` [Example 33, 1-(6-(4-amino-1-isobutyl-1H-pyrazolo[3,4-d]pyrimidin-3-yl)naphthalen-2-yloxy)-2-methylpropan-2-ol], the “bioavailability (in words)” value was “essentially complete bioavailability”.

System: S. neurona merozoites
Assay: S. neurona growth assay (yellow fluorescent protein-expressing clone)
Details: Sarcocystis neurona, read-out: S. neurona EC50
For `Nc1ncnc2c1c(-c1ccc3nccnc3c1)nn2CC1CCNCC1`, the EC50 was greater than 10000 nM.
With `CC(C)(O)Cn1nc(-c2ccc3nc(OC4CC4)ccc3c2)c2c(N)ncnc21` [Example 25, 1-(4-Amino-3-(2-cyclopropoxyquinolin-6-yl)-1H-pyrazolo[3,4-d]pyrimidin-1-yl)-2-methylpropan-2-ol] the EC50 was 128 nM.
